This is an account of results in publication PMC8620685, “Effect of Selected Silyl Groups on the Anticancer Activity of 3,4-Dibromo-5-Hydroxy-Furan-2(5H)-One Derivatives” (Pharmaceuticals, 2021).

Read-outs that look alike come from different tables or passages of the source.

The test system of one series is HCT-116 cells. The series is described as follows: Annexin V-FITC/PI apoptosis assay. Type of series: cell-based, human. On the procedure: To verify this thesis, we utilized annexin-V/PI double staining of cells, which were subsequently subjected to flow cytometric analysis.
The HCT 116 cells were seeded in 6-well plate (Nunc, ThermoFisher, Waltham, MA, USA) at a density of 5 × 10^4 cells/well and allowed to attach. After 24 h the medium was replaced with tested compounds. The cells were then incubated for 24 h at 37 °C. Next, both floating and adherent cells were harvested and centrifuged at 600× g. The cells were washed with PBS (phosphate buffered saline) (Sigma-Aldrich, Taufkirchen, Germany) and we followed instructions from the manufacturer of the Annexin V-FITC Apoptosis Detection Kit (Biotool, Jupiter, FL, USA). Fluorescence was measured using a Becton Dickinson FACS Aria III sorter (BD Company, San Diego, CA, USA). Experiments were repeated at least twice. Data were analyzed using FCE Express 7 Software (DeNovo Software, Pasadena, CA, USA).

Another series deals with MCF-7. Kind of series: MTT assay, MCF-7. The settings on record: Homo sapiens, MCF7, 72 h, read-out: IC50 (cytotoxicity), MCF-7, MTT, 72 h incubation. It counts as cell-based, human. On the procedure:
(§1) The in vitro antitumor activities of the MBA and its derivatives (Table 2) were assayed against a panel of human cancer cell lines (HCT116, HCT-116 ^−/−p53, HT-29, MCF-7, SJSA-1, U2OS, HepG2 and Hep3B) using the MTT assay. As a reference drug we used 5-fluorouracil (5-FU). […] On the basis of in vitro antiproliferative activities, compounds 3b and 3c were selected for further mechanistic studies in the HCT-116 cell line.
(§2) Human cells lines: colon cancer (HCT-116 wt, HT-29), non-small lung carcinoma (A549), and bronchial epithelial cells (BEAS-2B) were obtained from American Type Culture Collection (ATCC, Manassas, VA, USA). Isogenic cell line HCT 116 p53^−/− (deleted both p53 alleles) were a gift from Dr. Bert Vogelstein. Other cell lines, namely MCF-7, SJSA-1, U2OS, HepG2, and Hep3B were received from the collection stored at Centre of Biotechnology of Silesian University of Technology. All cells were grown in DMEM with a high glucose medium (Sigma-Aldrich, Taufkirchen, Germany) supplemented with 10% (v/v) inactivated fetal bovine serum (FBS) (EURx, Gdańsk, Poland) and 1% antibiotics (10,000 μg/mL of streptomycin and 10,000 units/ml of penicillin) (Sigma-Aldrich, Taufkirchen, Germany) at 37 °C in humidified 5% CO2. The maximum concentration of DMSO in the culture media was 0.4%.
(§3) 5 × 10^3 cells per well for the MCF-7 cell line and 2.5 × 10^3 cells per well for the other cell lines were seeded in 96-well plates to adhere for 24 h. Afterward, the cells were treated with tested compounds. After 72 hours of incubation, 50 μL 0.5 mg/ml solution of MTT (3-(4,5-dimethylthiazol-2-yl)-2,5-diphenyl-2H-tetrazolium bromide) were added to each well and the plates were incubated for 3 h at 37 °C. Next, the MTT solution was removed from the plates and formed formazan crystals were dissolved in 2-propanol (Avantor Performance Materials, Gliwice, Poland) containing 0.04 M hydrochloric acid (Avantor Performance Materials, Gliwice, Poland). The absorbance was measured at 570 nm wavelength using a multiwall plate reader (BioTek, Winooski, VT, USA). The experiment was performed at a minimum of 3 independent replicates. Cell viability was set as a percentage versus vehicle control. IC50 was defined as a concentration of a drug that decreased cell viability by 50% relative to the untreated control.
On the technique in general: Tetrazolium assays rely on reduction of a dye to a coloured formazan, in cell work by metabolically active cells.

The next series deals with HCT 116 p53−/−. The series is described as follows: MTT assay, HCT 116 p53−/−. As to conditions: Homo sapiens, HCT-116, 72 h, read-out: IC50 (cytotoxicity), HCT 116 p53−/−. It counts as cell-based. Here is the method:
as §1, §2, §3

For a further series, the system named is Hep3B. Kind of series: MTT assay, Hep3B. It counts as cell-based. The settings on record: Homo sapiens, read-out: IC50 (cytotoxicity), Hep3B. On the procedure:
as §1, §2, §3

The test system of another series is cleaved caspase-3. Kind of series: Human Apoptosis Proteome Profiler array, cleaved caspase-3. The settings on record: HCT-116, 1 h exposure, 2 × IC50 (3b at 30.2 μM). It counts as cell-based. The source says: To explore in detail the molecular mechanism of apoptosis induction by compounds 3b and 3c, we employed Human Apoptosis Proteome Profiler arrays that allow quantification of apoptosis-related biomarkers (Figure 3C). […] Collectively, it can be concluded that silyl derivative 3b promotes cell death in HCT 116 cells by the alteration of expression levels of survivin and activation of caspase-3.
The Human Apoptosis Array Kit (R&D Systems, Abingdon, UK) was used to determine the levels of expression of apoptosis-related proteins. 2.5 × 10^5 HCT 116 wt cells were seeded on 100 mm dishes (Nunc, ThermoFisher, Waltham, MA, USA) and allowed to attach for 24 h. Then the medium was replaced with tested compounds at a concentration corresponding 2 × IC50 value and the cells were incubated in 37 °C. After 60 min the cells were lysed and the lysates were clarified by centrifugation for 30 min at 14,000× g. The total protein concentration was measured using the Protein Quantification Kit-Rapid (Sigma-Aldrich, Taufkirchen, Germany) according to the manufacturer’s instruction. The next steps followed instructions from the manufacturer of the Human Apoptosis Array Kit. The membranes were then scanned in the G:Box trans illuminator (Syngene, Cambridge, UK) and the protein expression levels were quantified by densitometric analysis using ImageJ software.

Series [1] can be described thus: MTT assay, normal bronchial epithelium cell line BEAS-2B. Type of series: cell-based. The settings on record: human. On the procedure:
(§4) One of the major drawbacks of currently used anticancer drugs is their low selectivity, which often leads to undesired side effects that may be harmful to patients. Overcoming this challenging task requires special attention at the pre-clinical development level. To check whether silyl group incorporation may affect the selectivity of compounds towards cancer cells, MBA and all its new silyl derivatives were tested for their efficacy on noncancerous BEAS-2B and cancerous A549 cells line. […] In contrast, compounds 3a and 3d were more cytotoxic to A549 cells with SI values 6.05 and 1.72, respectively. Strikingly, those two compounds have similar cLogP values 3.08 and 3.22, respectively.
as §2, §3

The next series has as its system SJSA-1. The series is described as follows: MTT assay, SJSA-1. Type of series: cell-based. As to conditions: Homo sapiens, read-out: IC50 (cytotoxicity), SJSA-1. Here is the method: as §1, §2, §3
A further series deals with HT-29. Kind of series: MTT assay, HT-29. As to conditions: Homo sapiens, HT-29, 72 h, read-out: IC50 (cytotoxicity), HT-29. Type of series: cell-based. Here is the method:
as §1, §2, §3

A further series has as its system U2OS. Kind of series: MTT assay, U2OS. Type of series: cell-based. As to conditions: Homo sapiens, 72 h, read-out: IC50 (cytotoxicity), U2OS. Here is the method:
as §1, §2, §3

For a further series, the system named is A549. Kind of series: MTT assay, NSCLC cell line A549. The settings on record: for IC50: Homo sapiens, read-out: IC50 (cytotoxicity), A549; for SI: selectivity, A549 versus BEAS-2B. Type of series: cell-based, human. Here is the method:
as §4, §2, §3

[2] abbreviates: BEAS-2B cells (noncancerous bronchial epithelial cells), MTT, 72 h incubation, noncancerous cells, read-out: IC50 (cytotoxicity), BEAS-2B.

On to `CC(C)[Si](OC1OC(=O)C(Br)=C1Br)(C(C)C)C(C)C` (stereo not shown) [Compound 3b, 3,4-Dibromo-5-(triisopropylsilyloxy)-furan-2(5H)-one], for which the “apoptotic (death) cells in total, annexin-V+/PI− plus annexin-V+/PI+” value in the series with HCT-116 cells (20 μM, 24 h, HCT-116) was “roughly 30%”. Moreover, the “induction of apoptosis / cell death in HCT-116” value in the series on HCT-116 cells (HCT-116, statement in discussion) is recorded as “rapidly triggered cell death”. The IC50 in the series with MCF-7 was 7.7 ± 0.9 µM; with HCT 116 p53−/− it was 10.8 ± 1 µM; in the series with Hep3B (MTT, 72 h incubation) it was 21.3 ± 3.5 µM; in the series with SJSA-1 (SJSA-1, MTT, 72 h incubation), 9.9 ± 1.1 µM; in the series on HT-29, 7.3 ± 0.8 µM; with U2OS, 9.3 ± 0.2 µM. Further, in the series on A549 (A549, MTT, 72 h incubation), the IC50 amounted to 30.4 ± 4.2 µM. In the series with cleaved caspase-3, the “cleaved caspase-3 level (caspase-3 activation)” value (“cleaved caspase-3 level” for short) is given as “significant up-regulation of cleaved caspase-3”. Besides, in series [1] (setting [2]), the IC50 at 72 h amounted to 12.5 ± 1.4 µM. The compound also gave an SI in the series with A549 of 0.41.
As for `CC(C)(C)[Si](OC1OC(=O)C(Br)=C1Br)(c1ccccc1)c1ccccc1` (stereo not shown) [Compound 3c, 3,4-Dibromo-5-(tert-butyldiphenylsilyloxy)-furan-2(5H)-one], the “apoptotic (death) cells in total, annexin-V+/PI− plus annexin-V+/PI+” value in the series on HCT-116 cells (20 μM, 24 h, HCT-116) is 18.5%. Further, the IC50 with MCF-7 amounted to 10.9 ± 0.7 µM; in the series with HCT 116 p53−/− it was 4 ± 0.3 µM; in the series on Hep3B (MTT, 72 h incubation) it was 65.6 ± 2.2 µM; with SJSA-1 (SJSA-1, MTT, 72 h incubation) it was 14.9 ± 1.5 µM; in the series on HT-29 it was 3.9 ± 0.2 µM; in the series with U2OS, 10.2 ± 0.8 µM. Moreover, the IC50 in the series on A549 (A549, MTT, 72 h incubation) was determined as 29.1 ± 1 µM. Moreover, the “cleaved caspase-3 level” value in the series with cleaved caspase-3 was “neither the MBA nor compound 3c induced caspase-3 activation”. In [1] (setting [2]), the IC50 at 72 h was 20.3 ± 0.6 µM. The same compound registered an SI with A549 of 0.70.
On to `O=C1OC(O)C(Br)=C1Br` (stereo not shown) [MBA, 3,4-dibromo-5-hydroxyfuran-2(5H)-one, reference compound], for which, in the series with HCT-116 cells (20 μM, 24 h, HCT-116), the proapoptotic activity entry is listed as “negligible proapoptotic activity”. Also, the IC50 in the series on MCF-7 is 142 ± 22.6 µM; in the series on HCT 116 p53−/−, 25.4 ± 6 µM; with Hep3B (72 h) it was 125 ± 10.5 µM; with SJSA-1 (SJSA-1, 72 h) it was 213 ± 8.8 µM; in the series on HT-29, 97.1 ± 6.6 µM; with U2OS, 97.6 ± 1.1 µM. Further, the IC50 with A549 (A549, 72 h) was determined as 203 ± 0.3 µM. Further, the “cleaved caspase-3 level” value with cleaved caspase-3 was “neither the MBA nor compound 3c induced caspase-3 activation”. This compound gave an IC50 at 72 h in [1] of 39.7 ± 9.7 µM. In the series with A549, this compound yielded an SI of 0.2.
